What all share (assay type): cell-based
For experiment [1], the target named is T1, human PLK1 (NLuc-PLK1) (Homo sapiens, UniProt P53350).
T1 construct: plasmid DNAs encoding N- and C-terminal fusions of full-length PLK1 with NLuc; host or cells: HEK293
The experiment in a line: PLK1 NanoBRET target engagement assay (NLuc-PLK1, N-terminal fusion) in live HEK293 cells. The settings on record: probe 11; at least three technical replicates; read-out: PLK1 NanoBRET IC50 (dose response, Figure 3a). Here is the method: HEK293 cells (ATCC) were cultured in DMEM (Gibco) + 10% FBS (Seradigm) with incubation in a humidified 37 °C/5% CO2 incubator. N- or C-terminal NLuc/PLK fusions were encoded in pFN31K expression vectors (Promega), including flexible Gly-Ser-Ser-Gly linkers between NLuc and ORFs corresponding to UniProt isoform 1 (PLK1: P53350-1, PLK2: Q9NYY3-1, and PLK3: Q9H4B4-1). Carrier DNA was encoded in pGEM-3Z vectors (Promega). For cellular BRET target engagement experiments, HEK293 cells were transfected with NLuc/PLK fusion constructs using FuGENE HD (Promega) according to the manufacturer’s protocol. […] One part (vol) of FuGENE HD complexes thus formed was combined with 20 parts (vol) of HEK293 cells suspended at a density of 2 × 10^5 per mL, followed by incubation in a humidified 37 °C/5% CO2 incubator for 20 hr.
To test BRET probes 10 and 11 against PLK1, HEK293 adherent cells were incubated with either NLuc fused to the N-terminus of PLK1 (NLuc-PLK1) or the C-terminus of PLK1 (PLK1-NLuc) using 1 µM of the BRET probe, and mBRET units were measured. […] NLuc-PLK2 and NLuc-PLK3 were tested with both probes 10 and 11 using the same protocol.
To estimate the half-maximal effective concentration (EC50) of probe 11 to PLK1 in cells, adherent HEK293 cells in a 96-well plate expressing the NLuc-PLK1 fusion protein were mixed with an increasing concentration of BRET probe 11. The resulting BRET ratio was fitted to the sigmoidal 4-parameter dose–response curve using Prism 9.0 (GraphPad, Boston MA, USA).
A general note: Bioluminescence resonance energy transfer reports proximity on the nanometre scale.

The target in experiment [2] is T2, PLK3 (Homo sapiens, UniProt Q9H4B4).
T2 construct: host or cells: HEK293
The settings on record: live cell, K10 tracer.

For experiment [3], the target named is T3, WEE2 (Homo sapiens, UniProt P0C1S8).
T3 construct: host or cells: HEK293
The settings on record: live cell, K10 tracer.

The target of experiment [4] is T4, TNNI3K (Homo sapiens, UniProt Q59H18).
T4 construct: host or cells: HEK293
T4 sequence (Q59H18 1-835): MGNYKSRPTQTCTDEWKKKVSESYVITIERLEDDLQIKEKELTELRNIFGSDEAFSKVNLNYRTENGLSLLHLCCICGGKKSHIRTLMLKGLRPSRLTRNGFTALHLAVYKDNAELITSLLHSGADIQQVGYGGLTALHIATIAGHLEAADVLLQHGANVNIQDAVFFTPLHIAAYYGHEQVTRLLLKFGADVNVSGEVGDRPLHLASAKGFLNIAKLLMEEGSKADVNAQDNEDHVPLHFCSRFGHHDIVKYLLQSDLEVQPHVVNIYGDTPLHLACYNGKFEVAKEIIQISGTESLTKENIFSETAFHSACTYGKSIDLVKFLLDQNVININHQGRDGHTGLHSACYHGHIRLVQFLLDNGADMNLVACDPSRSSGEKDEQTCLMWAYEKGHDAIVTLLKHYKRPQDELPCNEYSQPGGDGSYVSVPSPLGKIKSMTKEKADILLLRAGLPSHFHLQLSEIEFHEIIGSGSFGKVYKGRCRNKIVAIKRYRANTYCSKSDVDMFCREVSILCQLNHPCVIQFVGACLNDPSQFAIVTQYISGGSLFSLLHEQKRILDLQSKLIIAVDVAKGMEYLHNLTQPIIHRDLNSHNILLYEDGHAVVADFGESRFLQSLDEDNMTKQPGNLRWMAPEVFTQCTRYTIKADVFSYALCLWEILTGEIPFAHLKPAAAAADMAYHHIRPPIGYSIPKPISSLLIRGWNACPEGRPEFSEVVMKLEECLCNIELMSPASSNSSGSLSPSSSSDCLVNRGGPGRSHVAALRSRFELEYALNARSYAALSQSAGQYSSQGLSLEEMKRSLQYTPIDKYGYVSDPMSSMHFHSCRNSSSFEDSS
As to conditions: live cell, K10 tracer.

Experiment [5] addresses T5, MAP3K4 (Homo sapiens, UniProt Q9Y6R4).
T5 construct: host or cells: HEK293
The settings on record: live cell, K10 tracer.

The target in experiment [6] is T6, PLK2 (Homo sapiens, UniProt Q9NYY3).
T6 construct: host or cells: HEK293
As to conditions: live cell, K10 tracer.

Experiment [7] has as its target T7, GAK (Homo sapiens, UniProt O14976).
T7 construct: host or cells: HEK293
T7 sequence (O14976 1-1311): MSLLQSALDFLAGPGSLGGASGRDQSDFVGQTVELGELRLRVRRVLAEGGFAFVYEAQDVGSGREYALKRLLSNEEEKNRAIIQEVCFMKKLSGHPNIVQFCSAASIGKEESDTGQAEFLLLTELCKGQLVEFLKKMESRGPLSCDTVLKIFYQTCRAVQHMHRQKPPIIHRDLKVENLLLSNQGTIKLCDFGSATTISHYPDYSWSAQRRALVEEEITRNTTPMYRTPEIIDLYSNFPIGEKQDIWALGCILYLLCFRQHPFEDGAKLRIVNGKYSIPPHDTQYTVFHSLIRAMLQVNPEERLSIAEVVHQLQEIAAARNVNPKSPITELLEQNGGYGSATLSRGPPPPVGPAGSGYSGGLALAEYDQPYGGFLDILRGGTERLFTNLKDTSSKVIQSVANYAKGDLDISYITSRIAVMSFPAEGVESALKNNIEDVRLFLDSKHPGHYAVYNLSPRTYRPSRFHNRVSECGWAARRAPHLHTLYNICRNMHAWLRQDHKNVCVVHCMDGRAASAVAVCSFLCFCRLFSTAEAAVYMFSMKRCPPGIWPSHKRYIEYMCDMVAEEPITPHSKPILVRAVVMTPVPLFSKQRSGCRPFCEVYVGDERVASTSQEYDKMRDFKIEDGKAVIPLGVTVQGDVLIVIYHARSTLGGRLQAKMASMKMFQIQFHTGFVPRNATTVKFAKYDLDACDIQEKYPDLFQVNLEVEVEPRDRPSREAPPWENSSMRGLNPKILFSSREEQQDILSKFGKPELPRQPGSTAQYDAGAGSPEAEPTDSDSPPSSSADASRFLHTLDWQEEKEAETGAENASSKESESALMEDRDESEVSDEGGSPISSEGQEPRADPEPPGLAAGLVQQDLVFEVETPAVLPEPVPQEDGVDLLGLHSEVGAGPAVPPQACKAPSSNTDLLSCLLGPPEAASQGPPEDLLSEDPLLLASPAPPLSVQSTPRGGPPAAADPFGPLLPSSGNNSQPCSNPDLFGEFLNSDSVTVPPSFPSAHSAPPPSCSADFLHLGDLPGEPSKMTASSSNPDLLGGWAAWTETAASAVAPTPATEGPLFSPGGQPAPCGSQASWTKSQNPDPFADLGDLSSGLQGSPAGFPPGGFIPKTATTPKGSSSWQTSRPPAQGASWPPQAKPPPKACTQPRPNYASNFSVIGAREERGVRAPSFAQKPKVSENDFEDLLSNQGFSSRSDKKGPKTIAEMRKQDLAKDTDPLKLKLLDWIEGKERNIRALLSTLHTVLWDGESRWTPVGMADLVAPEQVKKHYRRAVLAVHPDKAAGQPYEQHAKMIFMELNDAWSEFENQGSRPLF
The settings on record: live cell, K10 tracer.

For experiment [8], the target named is T8, WEE1 (Homo sapiens, UniProt P30291).
T8 construct: host or cells: HEK293
The settings on record: live cell, K10 tracer.

Data on one compound can be found in PMC10095950, “Development of Cell Permeable NanoBRET Probes for the Measurement of PLK1 Target Engagement in Live Cells” (Molecules, 2023).

T2 sequence (Q9H4B4 whole entry): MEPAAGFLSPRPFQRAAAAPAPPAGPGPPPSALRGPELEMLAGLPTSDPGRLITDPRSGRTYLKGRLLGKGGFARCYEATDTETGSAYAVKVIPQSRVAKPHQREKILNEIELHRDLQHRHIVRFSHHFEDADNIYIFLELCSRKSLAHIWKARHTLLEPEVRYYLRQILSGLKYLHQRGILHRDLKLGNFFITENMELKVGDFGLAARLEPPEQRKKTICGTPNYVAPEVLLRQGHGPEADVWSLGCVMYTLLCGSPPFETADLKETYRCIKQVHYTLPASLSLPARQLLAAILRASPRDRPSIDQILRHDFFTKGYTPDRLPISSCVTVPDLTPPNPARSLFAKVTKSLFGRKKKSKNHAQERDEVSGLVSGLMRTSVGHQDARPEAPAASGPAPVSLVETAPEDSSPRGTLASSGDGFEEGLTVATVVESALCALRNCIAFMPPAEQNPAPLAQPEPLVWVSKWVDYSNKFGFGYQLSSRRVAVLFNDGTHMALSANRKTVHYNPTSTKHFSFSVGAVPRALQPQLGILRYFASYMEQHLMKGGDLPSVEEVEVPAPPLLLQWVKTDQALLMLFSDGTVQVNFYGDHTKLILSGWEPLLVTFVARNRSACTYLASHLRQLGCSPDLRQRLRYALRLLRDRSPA
T1 sequence (P53350 whole entry, the tested form may be a part): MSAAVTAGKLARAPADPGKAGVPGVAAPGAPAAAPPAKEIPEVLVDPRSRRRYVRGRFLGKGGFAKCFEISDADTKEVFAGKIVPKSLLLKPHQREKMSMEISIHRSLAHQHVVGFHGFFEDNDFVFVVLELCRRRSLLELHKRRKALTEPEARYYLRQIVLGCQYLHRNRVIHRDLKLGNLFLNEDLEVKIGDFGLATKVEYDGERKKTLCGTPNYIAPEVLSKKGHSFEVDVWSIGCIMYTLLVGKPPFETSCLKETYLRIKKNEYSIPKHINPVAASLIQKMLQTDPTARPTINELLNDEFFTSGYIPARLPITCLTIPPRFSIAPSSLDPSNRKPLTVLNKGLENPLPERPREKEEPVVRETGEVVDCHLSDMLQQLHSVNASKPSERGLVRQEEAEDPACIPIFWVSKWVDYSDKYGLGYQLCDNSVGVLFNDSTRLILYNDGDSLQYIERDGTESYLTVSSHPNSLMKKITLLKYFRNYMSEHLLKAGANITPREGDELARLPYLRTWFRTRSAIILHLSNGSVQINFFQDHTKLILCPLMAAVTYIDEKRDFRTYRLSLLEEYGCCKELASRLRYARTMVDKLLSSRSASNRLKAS
T6 sequence (Q9NYY3 whole entry): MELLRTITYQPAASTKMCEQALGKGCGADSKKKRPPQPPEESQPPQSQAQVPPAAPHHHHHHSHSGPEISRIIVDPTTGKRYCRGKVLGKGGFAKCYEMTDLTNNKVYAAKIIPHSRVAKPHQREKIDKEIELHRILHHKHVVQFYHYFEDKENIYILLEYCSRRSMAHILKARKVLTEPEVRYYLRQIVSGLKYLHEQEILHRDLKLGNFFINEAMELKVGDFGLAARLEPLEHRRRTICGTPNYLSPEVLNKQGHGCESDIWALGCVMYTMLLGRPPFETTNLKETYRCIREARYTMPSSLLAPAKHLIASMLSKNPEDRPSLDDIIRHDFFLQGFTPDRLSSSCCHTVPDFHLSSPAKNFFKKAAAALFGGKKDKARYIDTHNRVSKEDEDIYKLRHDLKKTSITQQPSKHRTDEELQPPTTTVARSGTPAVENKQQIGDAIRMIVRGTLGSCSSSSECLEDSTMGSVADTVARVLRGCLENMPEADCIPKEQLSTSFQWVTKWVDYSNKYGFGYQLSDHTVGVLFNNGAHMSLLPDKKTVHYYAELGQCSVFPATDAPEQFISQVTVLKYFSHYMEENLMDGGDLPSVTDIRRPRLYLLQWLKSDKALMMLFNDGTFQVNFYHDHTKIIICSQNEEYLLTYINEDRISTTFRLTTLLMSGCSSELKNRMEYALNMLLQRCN
T3 sequence (P0C1S8 whole entry): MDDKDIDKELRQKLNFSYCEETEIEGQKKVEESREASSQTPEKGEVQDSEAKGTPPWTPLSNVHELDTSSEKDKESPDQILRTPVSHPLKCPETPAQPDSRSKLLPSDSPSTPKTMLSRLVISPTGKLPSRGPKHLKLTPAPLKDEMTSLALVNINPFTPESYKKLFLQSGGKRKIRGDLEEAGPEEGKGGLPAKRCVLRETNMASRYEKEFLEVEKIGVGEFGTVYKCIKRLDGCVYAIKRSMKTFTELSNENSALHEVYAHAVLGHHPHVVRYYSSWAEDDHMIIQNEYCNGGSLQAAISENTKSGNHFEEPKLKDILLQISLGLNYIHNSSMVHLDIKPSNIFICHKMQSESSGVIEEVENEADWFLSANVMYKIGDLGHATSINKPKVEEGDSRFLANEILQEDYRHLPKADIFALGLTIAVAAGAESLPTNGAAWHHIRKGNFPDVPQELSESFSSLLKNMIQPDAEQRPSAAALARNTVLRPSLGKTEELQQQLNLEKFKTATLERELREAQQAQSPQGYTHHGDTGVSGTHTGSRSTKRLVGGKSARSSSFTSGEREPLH
T8 sequence (P30291 whole entry): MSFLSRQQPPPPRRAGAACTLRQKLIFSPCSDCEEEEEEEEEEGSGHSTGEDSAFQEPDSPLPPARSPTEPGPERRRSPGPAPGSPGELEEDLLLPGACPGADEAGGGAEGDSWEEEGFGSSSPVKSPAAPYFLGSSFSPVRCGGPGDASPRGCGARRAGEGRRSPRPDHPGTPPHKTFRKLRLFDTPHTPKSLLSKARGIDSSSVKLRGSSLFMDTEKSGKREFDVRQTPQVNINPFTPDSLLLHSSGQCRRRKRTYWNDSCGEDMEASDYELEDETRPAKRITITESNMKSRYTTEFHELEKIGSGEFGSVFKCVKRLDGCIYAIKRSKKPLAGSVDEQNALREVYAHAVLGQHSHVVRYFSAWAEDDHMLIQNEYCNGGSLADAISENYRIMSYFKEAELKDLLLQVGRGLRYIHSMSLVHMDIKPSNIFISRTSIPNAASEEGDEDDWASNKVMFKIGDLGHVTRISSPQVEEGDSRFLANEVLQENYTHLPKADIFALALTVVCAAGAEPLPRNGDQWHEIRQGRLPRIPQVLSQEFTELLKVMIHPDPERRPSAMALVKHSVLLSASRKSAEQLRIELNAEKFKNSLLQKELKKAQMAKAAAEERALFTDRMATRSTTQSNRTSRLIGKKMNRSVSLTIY
T5 sequence (Q9Y6R4 whole entry): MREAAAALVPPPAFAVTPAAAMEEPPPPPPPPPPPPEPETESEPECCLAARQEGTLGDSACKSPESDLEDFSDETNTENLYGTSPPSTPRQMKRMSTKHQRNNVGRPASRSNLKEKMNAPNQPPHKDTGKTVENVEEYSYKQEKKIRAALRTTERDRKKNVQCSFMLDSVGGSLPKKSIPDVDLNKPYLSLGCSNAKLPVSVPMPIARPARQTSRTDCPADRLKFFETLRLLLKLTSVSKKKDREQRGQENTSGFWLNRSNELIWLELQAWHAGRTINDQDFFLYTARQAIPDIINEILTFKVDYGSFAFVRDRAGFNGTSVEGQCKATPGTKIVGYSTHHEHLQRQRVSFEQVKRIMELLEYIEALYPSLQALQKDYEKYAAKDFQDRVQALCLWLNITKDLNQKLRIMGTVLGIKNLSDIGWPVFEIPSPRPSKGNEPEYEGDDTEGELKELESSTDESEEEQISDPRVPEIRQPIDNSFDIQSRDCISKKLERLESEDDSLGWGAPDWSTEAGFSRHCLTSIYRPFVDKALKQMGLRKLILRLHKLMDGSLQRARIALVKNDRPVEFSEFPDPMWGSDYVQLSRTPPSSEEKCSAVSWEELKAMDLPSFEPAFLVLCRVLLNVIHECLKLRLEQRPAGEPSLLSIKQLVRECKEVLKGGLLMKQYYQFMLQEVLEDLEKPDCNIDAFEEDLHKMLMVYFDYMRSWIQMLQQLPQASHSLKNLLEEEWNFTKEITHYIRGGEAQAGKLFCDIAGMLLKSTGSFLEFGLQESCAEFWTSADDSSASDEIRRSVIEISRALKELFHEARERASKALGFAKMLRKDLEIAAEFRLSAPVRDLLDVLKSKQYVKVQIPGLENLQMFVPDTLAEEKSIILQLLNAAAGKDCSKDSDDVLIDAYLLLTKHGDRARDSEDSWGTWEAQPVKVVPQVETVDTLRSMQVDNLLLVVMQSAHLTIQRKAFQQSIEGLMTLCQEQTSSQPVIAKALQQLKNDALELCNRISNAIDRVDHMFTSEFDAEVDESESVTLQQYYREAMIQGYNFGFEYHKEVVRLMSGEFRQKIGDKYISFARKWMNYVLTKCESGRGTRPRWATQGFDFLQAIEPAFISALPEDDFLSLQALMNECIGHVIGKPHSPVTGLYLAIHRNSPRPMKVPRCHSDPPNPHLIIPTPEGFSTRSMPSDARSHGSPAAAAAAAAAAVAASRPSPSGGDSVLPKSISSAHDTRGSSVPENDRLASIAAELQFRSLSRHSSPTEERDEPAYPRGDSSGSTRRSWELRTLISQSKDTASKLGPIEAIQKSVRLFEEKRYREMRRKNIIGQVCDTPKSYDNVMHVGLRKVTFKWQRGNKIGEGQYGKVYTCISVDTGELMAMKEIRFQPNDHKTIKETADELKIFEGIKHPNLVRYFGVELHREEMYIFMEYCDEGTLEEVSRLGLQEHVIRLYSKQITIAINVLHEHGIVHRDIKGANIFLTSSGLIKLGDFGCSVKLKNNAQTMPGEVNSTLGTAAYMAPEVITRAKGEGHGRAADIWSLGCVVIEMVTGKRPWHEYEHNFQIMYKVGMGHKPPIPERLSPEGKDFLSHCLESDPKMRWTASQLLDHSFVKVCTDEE

For the compound `C=CCn1c(=O)c2cnc(Nc3ccc(N4CCN(C)CC4)cc3)nc2n1-c1cccc(C(C)(C)O)n1` [adavosertib], in experiment [1], the IC50 (as a rule, the concentration that gives 50% inhibition) was above 1000 nM. The receptor occupancy at 1 µM in experiment [2] worked out at 53%; in experiment [3] it was 59%; in experiment [4], 70%; in experiment [5], 67%; in experiment [6], 95%; in experiment [7] it was 63%. In experiment [8], this compound showed a receptor occupancy at 1 µM of 95%.
